Laboratory results published in patent US20260285850A1, “SUBSTITUTED OXAZOLIDINONES AND IMIDAZOLINONES AS HERBICIDES” (FMC CORPORATION, priority 2023, published 2026).

Key:
Format in all cases: in vivo
[1] = test system: barnyardgrass (Echinochloa crus-galli); experiment: Test A preemergence soil spray, visual injury rating 0-100; settings: 10 days, 0 = no effect, 100 = complete control
Procedure, shortened: (§1)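 Plants were grown in a loam soil-sand blend and treated with test chemical in a non-phytotoxic solvent mixture containing surfactant, either sprayed on soil preemergence or applied postemergence to 2-10 cm plants. After 10 days in a greenhouse, injury was scored visually against untreated controls, 0 meaning no effect and 100 complete control.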

[2] = test system: blackgrass (Alopecurus myosuroides); experiment: as above; settings: 10 days, 0 = no effect, 100 = complete control
Procedure, shortened: as §1

corn (Zea mays) [3] = experiment: as above; settings: 10 days, 0 = no effect, 100 = complete control
Procedure, shortened: as §1

kochia (Bassia scoparia) [4] = experiment: as above; settings: 10 days, 0 = no effect, 100 = complete control
Procedure, shortened: as §1

[5] = test system: oat, wild (wild oat, Avena fatua); experiment: as above; settings: 10 days, 0 = no effect, 100 = complete control
Procedure, shortened: as §1

[6] = test system: palmer (palmer amaranth, palmer pigweed, Amaranthus palmeri); experiment: as above; settings: 10 days, 0 = no effect, 100 = complete control
Procedure, shortened: as §1

[7] = test system: ragweed (common ragweed, Ambrosia artemisiifolia); experiment: as above; settings: 10 days, 0 = no effect, 100 = complete control
Procedure, shortened: as §1

[8] = test system: ryegrass, Italian (italian ryegrass, Lolium multiflorum); experiment: as above; settings: 10 days, 0 = no effect, 100 = complete control
Procedure, shortened: as §1

soybean (Glycine max) [9] = experiment: as above; settings: 10 days, 0 = no effect, 100 = complete control
Procedure, shortened: as §1

[10] = test system: wheat (Triticum aestivum); experiment: as above; settings: 10 days, 0 = no effect, 100 = complete control
Procedure, shortened: as §1

[11] = test system: barnyardgrass (Echinochloa crus-galli); experiment: Test A postemergence application, visual injury rating 0-100; settings: Postemergence
Procedure, shortened: as §1

[12] = test system: blackgrass (Alopecurus myosuroides); experiment: as above; settings: Postemergence
Procedure, shortened: as §1

corn (Zea mays) [13] = experiment: as above; settings: Postemergence
Procedure, shortened: as §1

[14] = test system: galium (catchweed bedstraw, Galium aparine); experiment: as above; settings: Postemergence
Procedure, shortened: as §1

[15] = test system: horseweed (Erigeron canadensis); experiment: as above; settings: Postemergence
Procedure, shortened: as §1

kochia (Bassia scoparia) [16] = experiment: as above; settings: Postemergence
Procedure, shortened: as §1

[17] = test system: oat, wild (wild oat, Avena fatua); experiment: as above; settings: Postemergence
Procedure, shortened: as §1

[18] = test system: palmer (palmer amaranth, palmer pigweed, Amaranthus palmeri); experiment: as above; settings: Postemergence
Procedure, shortened: as §1

[19] = test system: ragweed (common ragweed, Ambrosia artemisiifolia); experiment: as above; settings: Postemergence
Procedure, shortened: as §1

[20] = test system: ryegrass, Italian (italian ryegrass, Lolium multiflorum); experiment: as above; settings: Postemergence
Procedure, shortened: as §1

soybean (Glycine max) [21] = experiment: as above; settings: Postemergence
Procedure, shortened: as §1

[22] = test system: wheat (Triticum aestivum); experiment: as above; settings: Postemergence
Procedure, shortened: as §1

[23] = test system: barnyardgrass (Echinochloa crusgalli); experiment: Test B flooded paddy test, visual plant response rating 0-100; settings: 250 g ai/ha, Flood, applied to paddy water, evaluated after 13 days
Procedure, shortened: (§2)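 Compounds applied to standing paddy water (3 cm above soil, maintained for the test duration) on 2-leaf-stage plants; visual rating vs controls at 13 days, greenhouse.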

[24] = test system: ducksalad (Heteranthera limosa); experiment: as above; settings: 250 g ai/ha, Flood, applied to paddy water, evaluated after 13 days
Procedure, shortened: as §2

rice (Oryza sativa) = experiment: as above; settings: 250 g ai/ha, Flood, applied to paddy water, evaluated after 13 days
Procedure, shortened: as §2

[25] = test system: sedge, umbrella (small-flower umbrella sedge, Cyperus difformis); experiment: as above; settings: 250 g ai/ha, Flood, applied to paddy water, evaluated after 13 days
Procedure, shortened: as §2

[26] = 31 g ai/ha, greenhouse 10 days, 0 no effect, 100 complete control
[27] = 125 g ai/ha, 10 days, 0 is no effect, 100 is complete control

CSCCOC(=O)C1C=CC(NC(=O)C2(C)CN(c3cc(Cl)cc(Cl)c3)C(=O)O2)C1 (stereo not drawn) [Compound 69]
Barnyardgrass plant response rating (0-100) ([1]; 31 g ai/ha): 60 | Barnyardgrass plant response rating (0 to 100 scale) ([1]; 125 g ai/ha): 90 | Blackgrass plant response rating (0-100) ([2]; 31 g ai/ha): 40 | Blackgrass plant response rating (0 to 100 scale) ([2]; 125 g ai/ha): 60 | Corn plant response rating (0-100) (corn (Zea mays) [3]; 31 g ai/ha): 0 | Corn plant response rating (0 to 100 scale) (corn (Zea mays) [3]; 125 g ai/ha): 60 | Kochia plant response rating (0-100) (kochia (Bassia scoparia) [4]; 31 g ai/ha): 40 | Kochia plant response rating (0 to 100 scale) (kochia (Bassia scoparia) [4]; 125 g ai/ha): 90 | Oat, Wild plant response rating (0-100) ([5]; 31 g ai/ha): 0 | Oat, Wild plant response rating (0 to 100 scale) ([5]; 125 g ai/ha): 60 | Amaranth, Palmer plant response rating (0-100) ([6]; 31 g ai/ha): 90 | Amaranth, Palmer plant response rating (0 to 100 scale) ([6]; 125 g ai/ha): 90 | Ragweed plant response rating (0-100) ([7]; 31 g ai/ha): 0 | Ragweed plant response rating (0 to 100 scale) ([7]; 125 g ai/ha): 20 | Ryegrass, Italian plant response rating (0-100) ([8]; 31 g ai/ha): 30 | Ryegrass, Italian plant response rating (0 to 100 scale) ([8]; 125 g ai/ha): 80 | Soybean plant response rating (0-100) (soybean (Glycine max) [9]; 31 g ai/ha): 20 | Soybean plant response rating (0 to 100 scale) (soybean (Glycine max) [9]; 125 g ai/ha): 50 | Wheat plant response rating (0-100) ([10]; 31 g ai/ha): 30 | Wheat plant response rating (0 to 100 scale) ([10]; 125 g ai/ha): 70 | Barnyardgrass plant response rating (0 to 100 scale) [11, 26]: 90 | Barnyardgrass plant response rating (0 to 100 scale) [11, 27]: 90 | Blackgrass plant response rating (0 to 100 scale) [12, 26]: 90 | Blackgrass plant response rating (0 to 100 scale) [12, 27]: 90 | Corn plant response rating (0 to 100 scale) (corn (Zea mays) [13]; [26]): 100 | Corn plant response rating (0 to 100 scale) (corn (Zea mays) [13]; [27]): 100 | Galium plant response rating (0 to 100 scale) [14, 26]: 80 | Galium plant response rating (0 to 100 scale) [14, 27]: 80 | Horseweed plant response rating (0 to 100 scale) [15, 26]: 70 | Horseweed plant response rating (0 to 100 scale) [15, 27]: 80 | Kochia plant response rating (0 to 100 scale) (kochia (Bassia scoparia) [16]; [26]): 80 | Kochia plant response rating (0 to 100 scale) (kochia (Bassia scoparia) [16]; [27]): 80 | Oat, Wild plant response rating (0 to 100 scale) [17, 26]: 90 | Oat, Wild plant response rating (0 to 100 scale) [17, 27]: 90 | Amaranth, Palmer / Pigweed, Palmer plant response rating (0 to 100 scale) [18, 26]: 90 | Amaranth, Palmer / Pigweed, Palmer plant response rating (0 to 100 scale) [18, 27]: 90 | Ragweed plant response rating (0 to 100 scale) [19, 26]: 50 | Ragweed plant response rating (0 to 100 scale) [19, 27]: 70 | Ryegrass, Italian plant response rating (0 to 100 scale) [20, 26]: 70 | Ryegrass, Italian plant response rating (0 to 100 scale) [20, 27]: 70 | Soybean plant response rating (0 to 100 scale) (soybean (Glycine max) [21]; [26]): 60 | Soybean plant response rating (0 to 100 scale) (soybean (Glycine max) [21]; [27]): 90 | Wheat plant response rating (0 to 100 scale) [22, 26]: 90 | Wheat plant response rating (0 to 100 scale) [22, 27]: 90 | Plant response rating, Barnyardgrass (0 to 100 scale, 0 is no effect and 100 is complete control) [23]: 85 | Plant response rating, Ducksalad (0 to 100 scale, 0 is no effect and 100 is complete control) [24]: 60 | Plant response rating, Rice (0 to 100 scale, 0 is no effect and 100 is complete control) (rice (Oryza sativa)): 50 | Plant response rating, Sedge, Umbrella (0 to 100 scale, 0 is no effect and 100 is complete control) [25]: 95
